From patent US11142515B2, “Pyrazolyl-ureas as kinase inhibitors” (RESPIVERT LIMITED, priority 2014, dated 2021)

Molecular target: T1, p38MAPKγ (MAPK12) (Homo sapiens, UniProt P53778)
T1 construct: purchased Life Technologies
T1 sequence (P53778 1-367): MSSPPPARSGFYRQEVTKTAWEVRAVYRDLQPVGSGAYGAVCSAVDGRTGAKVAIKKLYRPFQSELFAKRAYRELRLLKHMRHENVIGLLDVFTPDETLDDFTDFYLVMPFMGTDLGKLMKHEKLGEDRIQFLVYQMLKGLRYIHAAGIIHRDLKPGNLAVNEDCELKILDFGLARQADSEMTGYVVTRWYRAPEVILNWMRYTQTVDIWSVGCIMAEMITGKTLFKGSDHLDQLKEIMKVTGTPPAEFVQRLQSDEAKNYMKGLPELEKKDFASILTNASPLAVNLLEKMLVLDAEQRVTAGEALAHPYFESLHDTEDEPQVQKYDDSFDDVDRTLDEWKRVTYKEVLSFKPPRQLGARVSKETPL
Assay: p38 MAPKγ enzyme inhibition (Z-LYTE FRET)
Assay type: biochemical
Details: Table 2B, unit inferred; read-out: p38 MAPKγ (Enzyme Profile)
Experimental: The enzyme inhibitory activities of compounds disclosed herein were determined by FRET using synthetic peptides labelled with both donor and acceptor fluorophores (Z-LYTE, Life Technologies, Paisley, UK).
The inhibitory activities of compounds of the invention against p38MAPKγ (MAPK12: Life Technologies), were evaluated by determining the level of activation/phosphorylation of the target peptide. The enzyme (800 ng/mL, 2.5 μL) was incubated with the test compound (2.5 μL at either 40 μg/mL, 12 μg/mL, 4 μg/mL, 1.2 μg/mL, 0.4 μg/mL, 0.12 μg/mL, 0.04 μg/mL, 0.012 μg/mL, 0.004 μg/mL or 0.0012 μg/mL) for 2 h at RT. The FRET peptides (8 μM, 2.5 μL), and appropriate ATP solution (2.5 μL, 400 μM) were then added to the enzymes/compound mixtures and incubated for 1 h at RT. Development reagent (protease, 5 μL) was added for 1 h prior to detection in a fluorescence microplate reader (EnVision, Perkin Elmer).
In all cases, the site-specific protease cleaves non-phosphorylated peptide only and eliminates the FRET signal. Phosphorylation levels of each reaction were calculated using the ratio of coumarin emission (donor) over fluorescein emission (acceptor), for which low ratios indicate high phosphorylation and high ratios indicate low phosphorylation levels.

| IC50 | SMILES |
| --- | --- |
| 42 nM | Cc1ccc(-n2nc(C(C)(C)C)cc2NC(=O)Nc2ccc(OCc3ccnc(Nc4cnc(C(=O)NC5CN(C)C5)cn4)c3)c3ccccc23)cc1 [Example 89] |
| 1.7 nM | COCc1cccc(-n2nc(C(C)(C)C)cc2NC(=O)Nc2ccc(OCc3ccnc(Nc4cnc(C(=O)N5CCC(N(C)C)CC5)cn4)c3)c3ccccc23)c1 [Example 284, 1-(3-(tert-butyl)-1-(3-(methoxymethyl)phenyl)-1H-pyrazol-5-yl)-3-(4-((2-((5-(4-(dimethylamino)piperidine-1-carbonyl)pyrazin-2-yl)amino)pyridin-4-yl)methoxy)naphthalen-1-yl)urea] |
| 13 nM | Cc1ccc(-n2nc(C(C)(C)C)cc2NC(=O)Nc2ccc(OCc3ccnc(Nc4cnc(C(=O)N5CCCN(C)CC5)cn4)c3)c3ccccc23)cc1 [Example 274, 1-(3-(tert-butyl)-1-(p-tolyl)-1H-pyrazol-5-yl)-3-(4-((2-((5-(4-methyl-1,4-diazepane-1-carbonyl)pyrazin-2-yl)amino)pyridin-4-yl)methoxy)naphthalen-1-yl)urea] |
| > 15500 nM | CCCc1cncc(Nc2cc(COc3ccc(NC(=O)Nc4cc(C(C)(C)C)nn4-c4cccc(F)c4)c4ccccc34)ccn2)n1 [Example 255, 1-(3-(tert-butyl)-1-(3-fluoro-phenyl)-1H-pyrazol-5-yl)-3-(4-((2-((6-propylpyrazin-2-yl)amino)pyridin-4-yl)methoxy)naphthalen-1-yl) urea] |
| 166 nM | Cc1ccc(-n2nc(C(C)(C)C)cc2NC(=O)Nc2ccc(OCc3ccnc(Nc4cnc(C(=O)NCCN5C[C@@H](C)O[C@@H](C)C5)cn4)c3)c3ccccc23)cc1 [Example 85] |
| 233 nM | Cc1ccc(-n2nc(C(C)(C)C)cc2NC(=O)Nc2ccc(OCc3ccnc(Nc4cnc(C(=O)N[C@H]5CCCN(C)C5)cn4)c3)c3ccccc23)cc1 [Example 88] |
| 8.4 nM | COCc1cccc(-n2nc(C(C)(C)C)cc2NC(=O)Nc2ccc(OCc3ccnc(Nc4cnc(CN5CCN(C)CC5)cn4)c3)c3ccccc23)c1 [Example 276, 1-(3-(tert-butyl)-1-(3-(methoxymethyl)phenyl)-1H-pyrazol-5-yl)-3-(4-((2-((5-((4-methylpiperazin-1-yl)methyl)pyrazin-2-yl)amino)pyridin-4-yl)methoxy)naphthalen-1-yl)urea] |
| 772 nM | Cc1ccc(-n2nc(C(C)(C)C)cc2NC(=O)Nc2ccc(OCc3ccnc(Nc4cnc(C(=O)NCCN5CCC(F)(F)CC5)cn4)c3)c3ccccc23)cc1 [Example 94] |
| 116 nM | CO[C@@H]1CCN(CCNC(=O)c2cnc(Nc3cc(COc4ccc(NC(=O)Nc5cc(C(C)(C)C)nn5-c5ccc(C)cc5)c5ccccc45)ccn3)cn2)C1 [Example 98] |
| 46 nM | CC(=O)N1CCN(CCNC(=O)c2cnc(Nc3cc(COc4ccc(NC(=O)Nc5cc(C(C)(C)C)nn5-c5ccc(C)cc5)c5ccccc45)ccn3)cn2)CC1 [Example 102] |
| 5.8 nM | Cc1ccc(-n2nc(C(C)(C)C)cc2NC(=O)Nc2ccc(OCc3ccnc(Nc4cncc(C5CCN(C)CC5)n4)c3)c3ccccc23)cc1 [Example 286, 1-(3-(tert-butyl)-1-(p-tolyl)-1H-pyrazol-5-yl)-3-(4-((2-((6-(1-methylpiperidin-4-yl)pyrazin-2-yl)amino)pyridin-4-yl)methoxy)naphthalen-1-yl)urea] |
| 34 nM | Cc1ccc(-n2nc(C(C)(C)C)cc2NC(=O)Nc2ccc(OCc3ccnc(Nc4cnc(C(=O)NCCN5CC[C@@H](O)C5)cn4)c3)c3ccccc23)cc1 [Example 97] |
| 116 nM | Cc1ccc(-n2nc(C(C)(C)C)cc2NC(=O)Nc2ccc(OCc3ccnc(Nc4cnc(C(=O)NCCCN5CCOCC5)cn4)c3)c3ccccc23)cc1 [Example 279, 5-((4-(((4-(3-(3-(tert-butyl)-1-(p-tolyl)-1H-pyrazol-5-yl)ureido)naphthalen-1-yl)oxy)methyl)pyridin-2-yl)amino)-N-(3-morpholino-propyl)pyrazine-2-carboxamide] |
